1 substance from US20240058240A1, “COMPOUNDS AS SELF-TANNING SUBSTANCES AND TANNING COMPOSITIONS THEREOF” (CHEMCOM S.A., priority 2020, published 2024) can be followed below.

Assay [1] has as its target T1, OR7C1 (Homo sapiens, UniProt O76099).
T1 construct: transfected with a plasmid containing the CRE-luciferase and a plasmid containing the olfactory receptor; expressed in transfected cells; host or cells: HEK293T-RTP1A1/RTP2 (HEK293T stably expressing the chaperones RTP1A1 and RTP2)
T1 sequence (O76099 1-320): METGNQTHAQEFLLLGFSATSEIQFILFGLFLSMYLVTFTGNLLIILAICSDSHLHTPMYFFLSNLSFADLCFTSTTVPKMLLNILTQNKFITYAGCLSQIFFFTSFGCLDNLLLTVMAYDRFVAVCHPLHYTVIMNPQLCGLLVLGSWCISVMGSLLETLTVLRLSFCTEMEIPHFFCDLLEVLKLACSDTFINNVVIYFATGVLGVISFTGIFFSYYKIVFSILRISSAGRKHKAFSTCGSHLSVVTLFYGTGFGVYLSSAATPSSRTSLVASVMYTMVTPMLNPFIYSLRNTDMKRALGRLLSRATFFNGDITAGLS
As to the kind of experiment: Luciferase-based CRE gene reporter assay, dose-response on OR7C1. In kind it is cell-based. The note with it: negative logarithm of the EC50 in Moles; semi-logarithmic dilutions from 1 mM to 316 nM on OR7C1. As for the experimental part: HEK293T-RTP1A1/RTP2 cells were maintained in minimal essential medium (EMEM, Lonza) containing 10% fetal bovine serum (M10). These cells were generated by transfecting HEK293T (Thermofisher Scientific, cat ref: R70007) with an expression vector containing the sequences of the chaperone proteins RTP1A1 and RTP2 and a resistance gene to puromycin, using Lipofectamine 2000. The recombinant cell population, used in these experiments, was selected by adding 10 μg/ml of puromycin into the culture medium and subsequently subcloned (WO 2014/191047 A1).
Potential OR7C1 agonists were diluted at a concentration of 1 mole/liter (M) into an organic solvent such as Dimethyl Sulfoxide (DMSO) or Ethanol to generate stock solutions. […]
For concentration-response analysis, serial dilutions of the tested molecules were prepared from stock solutions in EMEM plated into 96-well plates.
For the dose-response analysis, a Luciferase-based gene reporter assay (Promega, Leiden, the Netherlands) was used. Briefly, cells were platted on poly-D-lysine-coated 96-well plates and transfected with a plasmid containing the CRE-luciferase and a plasmid containing the olfactory receptor. Sixteen hours after transfection, the culture medium was replaced by serum-free EMEM containing the tested compounds at a determined concentration. After four hours of incubation at 37° C., cells were lysed and processed for luminescence measurement. Luminescence emission was recorded. Results were expressed as luciferase activity ([…] (RLU)) or as percentage of the response induced by 10 μM of the adenylate cyclase activator Forskolin. An empty plasmid is used as negative control.
Dose-response analyses using the luciferase-based reporter assay were performed using semi-logarithmic serial dilutions of the compounds, from 1 mM to 316 nM, on OR7C1. 46 compounds were tested in concentration-response analyses. In each experiment, an empty vector (pEFIBRHO) was used as negative control. Values are given as the negative logarithm of the EC50 in Moles.
(In general: Reporter assays use an easily measured gene product as a stand-in for the process of interest.)

Assay [2] has as its system Normal Human Epidermal Melanocytes moderately pigmented (NHEMs-MP). As to the kind of experiment: Melanin content (pigmentation) of NHEMs-MP in culture. The assay is classed as cell-based. The note with it: 3.16 μM, 4 days, NHEMs-MP, in comparison with DOPA (50 μM). The procedure: This primary culture was cultivated in medium M254 supplemented (LIFE TECHNOLOGIES; ref:M-254-500) with HMGS (human melanocyte growth supplement; LIFE TECHNOLOGIES; ref: S-002-5) and gentamycin (LIFE TECHNOLOGIES; ref:15710-049) and maintained in a humidified incubator at 37° C. with a 5% CO2 atmosphere. For experiments (see below), cells were seeded at a density of 9×10^4 cells/well (100 μL/well) and cultured at 37° C. under a 5% CO2.
The NHEMs-MP were treated for 4 days, with a medium refresh after 2 days of treatment—Amberketal, Ambermax and with the reference molecule (L-DOPA)—when the culture media are collected and stored at −80° C. as shown in FIG. 2. At the end of the treatments, the culture media were collected a second time, pooled with the media collected at day 2 and centrifuged for 30 minutes (14000 rpm). The pellet obtained after centrifugation and NHEMs-MP treated cells were lysed in 150 μl of a NaOH 1M solution. 5 μl of each cell lysate were used for protein quantification using BCA protein assay. The remaining 145 μl of the lysates were heated at 80° C. during 1 h. The optical density was measured at 490 nm and the melanin content was determined by comparison with a standard curve of synthetic melanin and reported to the quantity of protein present in each cell well tested.
The effects of these 2 compounds, namely Ambermax and Amberketal, on the melanin production were evaluated as described above. Based on MTS results, moderately pigmented (MP) NHEMs were treated with these 2 compounds at one concentration (100 μM for Amberketal and 3.16 μM for Ambermax) for 4 days. In parallel, cell cultures were also treated with Ethanol 0.1%, a concentration corresponding to the test compounds solvent, and with a known modulator of pigmentation (L-DOPA 50 μM). […] At the end of the treatments (D4), cells were lysed, the melanin content was quantified by spectrophotometry and normalized to the amount of proteins. Extracellular melanin was also evaluated by the same methodology after centrifugation of the culture media.

As for Ambermax [Compound 16], the “-LogEC50 (average n > 3)” value in assay [1] is > 8. In addition, in assay [2] (p<0.01, n=10), the “increase of melanin present in the media (extracellular)” value is recorded as “+123%”. Further, the “increase of intracellular melanin content” value in assay [2] (p<0.01, n=12) is recorded as “+46%”.
